Measurements as given in patent US20050244964A1, “Production of neural progenitor cells” (priority 2002, published 2005).

Legend:
[1] = system: Human ES cells; experiment: TH+ cell immunostaining of adhered human ES cell embryoid bodies; format: cell-based; conditions: for formation of TH+ cells (in words): human ES embryoid bodies adhered and differentiated
Description: Collagenase/trypsin passaged ES cells were prepared as a single cell suspension and seeded at a density of 150 cells/μl in low attachment TC dishes (Costar). Cell aggregates were split 1:3 at day 2 and possibly at day 3 if required. Cultures were feed daily for 9 days and on day 9 bodies were transferred to poly-L-ornithine/laminin coated 24 well trays in 0.5 ml of medium if adhesive culture was to be conducted. Another 0.5 ml media was added to each well after 24 hours incubation. Adhered cultures or suspension cultures were fed daily for a further 8 days.
Embryoid bodies or neurospheres/aggregates are allowed to settle onto a coated surface to allow differentiation to occur (4 to 8 days). The coating can be on a plastic surface in either a tray or a coated coverslip.
The ability of basic media with supplements (DMEM +N2 or ITSS) to promote neural differentiation of hES cells was compared with medium that included F12: (DMEM:F12 (1:1) +N2 or ITSS)
Trypsinised Human ES cells were seeded at approximately 10 to 20 cells/μl of media into 10 ml of neurosphere media (DMEM:F12, 10 μg/ml heparin (SIGMA), 1/50 B27(GIBCO), 1/100 pen/strep, 1/100 ITSS) in a T75 culture flask. 10 ng/ml FGF2 was optionally added but the culture medium was preferably mitogen-free (no FGF2). Cultures were maintained in the media for 9 days after which the embryoid bodies were optionally transferred to poly-L-ornithine/laminin plates and cultured in the same media for a further 6 days. The embryoid bodies so formed (EB^15) whether from adherent or suspension culture, were then triturated to near single cell form and used for either transplantation or for the formation of neurospheres/cell reaggregates.
Example 5 was repeated utilising human ES cells and a minimal media consisting of DMEM and 100 μM L-proline as outlined in the schematic of FIG. 12. Results were similar to those described in Example 5.

[2] = system: mouse ES cells; experiment: Neural versus non-neural differentiation and neural complexity scoring of mouse ES cell embryoid bodies; format: cell-based; conditions: RA doses 1 μM and 10 nM compared with 100 nM
Text: FIG. 2A is a graph that illustrates the level of neural differentiation when retinoic acid and MEDII are and are not present. The first column (ICb−RA) used a standard media (ICb, see Example 2), where a high percentage of non-neural tissue (scored as beating muscle) was observed. […] The third column used a 50% MEDII conditioned media but without RA supplementation. […] The fourth column used 50% MEDII supplemented with RA.
FIG. 2B is similar to FIG. 2A except the level of neural complexity was scored. A score of 1 to 3 was assigned depending upon the neuronal complexity (number of neurites and networking emanating from the body), with a score of 3 for the most complex.
Single cell suspensions of mouse ES cells were cultured for 4 days in standard culture media (ICb) or in the presence of 50% MEDII. The standard conditioning media (ICb) contains 90 ml DMEM, 10 ml of foetal calf serum, 1 ml glutamine (0.1M stock at 1/100 dilution) and 100 ul of β-Mercaptoethanol (0.1M stock at 1/1000 dilution). The culture process involved media changes on days 2 and 4 involving a ½ splitting of the cell aggregates. […] This media change occurred every day for three days (i.e to EBM^7). By the end of this period the morphological differences in treatment when supplemented with combinations of 50% MEDII and/or RA were apparent. […]

Molecule: O=C(O)[C@@H]1CCCN1 [L-proline]
- formation of TH+ cells (in words) [1]: high numbers of TH+cells
- proportion of TH+ cells ([1]; human ES embryoid bodies, 9 days suspension then adherent culture on laminin, with N2 or ITSS, L-proline 100 μM in DMEM): ~50%

Molecule: CC1=C(/C=C/C(C)=C/C=C/C(C)=C/C(=O)O)C(C)(C)CCC1 [RA, (all-E)-3,7-dimethyl-9-(2,6,6-trimethyl-1-cyclohexen-1-yl)-2,4,6,8-nonatetraenoic acid]
- uniformity of RA effect on embryoid bodies [2]: not as uniform as seen with 100 nM RA

Molecule: FGF2: fibroblast growth factor
- formation of TH+ cells (in words) [1]: little impact on the generation of TH+ cells
